Measured values as given in PubChem BioAssay AID1626 (SRMLSC, 2009).

Test system: M. tuberculosis H37Rv growth inhibition
Assay: M. tuberculosis H37Rv growth inhibitors, H37Rv strain (AID 1626)
Details: for IC90: measured here: IC90 against H37Rv; for CC50: measured here: Vero cell cytotoxicity

Compound	IC50 [µM]	IC90 [µM]	CC50 [µM]
O=C(Nc1nnc(-c2ccco2)o1)c1cccc2ccccc12	2.34	6.25	39.4
CCOC(=O)c1ccc(NCc2nc3ccccc3[nH]2)cc1	43.5	> 100	
C=CCOc1ccc(C=Nc2ccc(OC)cc2)c(O)c1		> 100	
O=c1oc2ccccc2nc1/C=C(\O)c1ccccc1	6.59	> 100	
N=C(N)SCc1cn(-c2ccccc2)nc1-c1ccc(Br)cc1	6.8	9.39	14.6
CCOc1ccc(NCc2nnc(SCc3ccc(Cl)cc3)n2-c2ccccc2)cc1			> 40
CCOc1ccc2nc(NC(=O)c3cnc(C)cn3)sc2c1	4.76	> 100	40
COc1ccc(CCNCC(O)Cn2c3ccccc3c3ccccc32)cc1OC (stereo not drawn)	10.6	15.2	11.8
CCCCCn1c(=O)c(C(=O)Nc2nc3ccccc3[nH]2)c(O)c2ccccc21	0.706	0.757	6.6
CC1CCN(C(=O)COC(=O)CCc2c[nH]c3ccccc23)CC1	0.34	> 100	
Cc1cccc(C=Nc2ccc3c(c2)oc2ccccc23)c1O	1.11	> 100	
O=[N+]([O-])c1ccc(N=Nc2c(Cl)cc(O)cc2Cl)cc1	1.64	2.41	5.17
COc1ccc(-c2oc3ccc(N4CCOCC4)cc3c2C#CC2(O)CCCCC2)cc1			> 40
COC(=O)CN1C(c2ccc(OC)cc2)=Nc2ccc(Cl)cc2C1c1ccccc1 (stereo not drawn)	3.18	6.98	
CCOc1ccc(NCc2ccccc2OCc2cccc(F)c2)cc1	8.84	> 100	
O=C(Oc1c(Cl)cc(Cl)c2cccnc12)c1ccco1	1.28	1.78	10
N=C1SCC(=O)N1c1ncc(Cc2ccc(F)cc2)s1	< 0.195	> 100	> 40
COc1ccc(NCc2nc3ccccc3n2CCOc2ccc(C)cc2)cc1	17.8	26.2	26.2
O=[N+]([O-])c1ccc(-c2ccc(/C=N/O)o2)cc1		> 100	
O=[N+]([O-])c1cc2cccnc2c2ncccc12	1.4	1.49	33
CCCCCCCCCn1c2c(c(=N)c3c1CCC3)CCCC2	4.41	5.68	7.25

Compound	IC50 [µM]	IC90 [µM]	CC50 [µM]
CCOC(=O)CSc1nc(N)c(C#N)c(-c2cccs2)c1C#N	1.59	3.27	
COc1ccc(Br)cc1C(C[N+](=O)[O-])c1c(N)n(C)c(=O)n(C)c1=O (stereo not drawn)	8.08	12.5	9.3
COc1ccc(C2(O)CC3CCC(C2)N3c2cc(C)nc(-c3ccccc3)n2)cc1 (stereo not drawn)	17.5	23.9	> 40
Cc1ccc(Cc2cnc(NC(=O)C3CCCO3)s2)cc1 (stereo not drawn)		> 100	> 40
C=CCOc1ccc(/C=N/O)cc1Cl		> 100	
O=C(CCc1nc(-c2cccs2)no1)Nc1cnc2ccccc2c1		> 100	
Cc1cc(Cl)n2ncc(-c3ccccc3)c2n1	58.1	> 100	> 40
CC(=O)Nc1nnc(-c2ccc3c(c2)CCCC3)o1	11.9	23	> 40
COc1cccc(-c2nc(-c3ccccc3)nc(N3CCN(C)CC3)c2C#N)c1	8.8	12.4	26.7
NS(=O)(=O)c1ccc(CCNC(=O)c2ccc3nc4ccc(Cl)cc4c(=O)n3c2)cc1	10.1	30.3	
CCN1CCN(Cc2ccc(NC(=O)c3cc(NC(=O)c4cc(-c5ccc(OC)cc5)n[nH]4)cc(OC)c3)cc2C(F)(F)F)CC1	4.41	5.93	6.28
O=C(CSc1nnc(-c2ccco2)o1)c1ccccc1Cl		> 100	
CCOc1ccc2nc(/N=C/c3nc(-c4ccccc4)oc3O)sc2c1	6.82	> 100	
Cc1nn(-c2ccccc2)c(Cl)c1CN(C(=O)CCl)c1ccc(Cl)cc1	13.5	31.3	1.82
OCCN1CCN(CC(O)COc2ccc(C34CC5CC(CC(C5)C3)C4)cc2)CC1 (stereo not drawn)	9.56	15.2	9.85
COc1ccc(/C=C2\Sc3ccc(C(=O)NCc4cccnc4)cc3N(C)C2=O)cc1OC	13	31.1	
Cc1ccc(CNCc2cc3c(C(C)(C)C)nn(-c4ccccc4)c3[nH]c2=O)cc1	8.33	11	> 40
CCCCCCCOc1ccc(OC(=O)c2cccnc2)cc1	6.32	> 100	15.4
CSc1nc2ccc(NC(=O)C3CC(=O)N(Cc4ccccc4)C3)cc2s1 (stereo not drawn)	5.17	7.75	
CCOc1ccc(NC(=O)CCn2cccc2)cc1		> 100	
O=C(Nc1ccc(OC(F)(F)F)cc1)N1CCN(c2ccnc3cc(Cl)ccc23)CC1	3.08	3.51	8.59
